ChEMBL document CHEMBL1201862, “PubChem BioAssay data set” (2004)
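Where inhibition never reached the appropriate level, the endpoint shown equals the highest concentration tested. Otherwise, values were interpolated linearly from a five-concentration, 48-hour dose response in 96-well plates. The concentration for 50% growth inhibition is given as GI50.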 The source made the active and inactive calls. Cut-off read from the data, not from the text of the source: active = GI50 up to about 1.1 µM and inactive = higher.

Legend:
Experiment in all cases: NCI anticancer screen, dose series, 48 h
[1] = tested on: NCI-H23
[2] = tested on: UACC-257
[3] = tested on: OVCAR-4
[4] = tested on: HCT-15
[5] = tested on: M14
[6] = tested on: NCI-H522
[7] = tested on: OVCAR-3
[8] = tested on: UO-31
[9] = tested on: HOP-18
[10] = tested on: LOX IMVI
[11] = tested on: SR
[12] = tested on: NCI/ADR-RES
[13] = tested on: KM12
[14] = tested on: EKVX
[15] = tested on: LXFL 529
[16] = tested on: DMS-114
[17] = tested on: HOP-92
[18] = tested on: RXF 631
[19] = tested on: XF498
[20] = tested on: M19-MEL
[21] = tested on: Malme-3M
[22] = tested on: SK-MEL-5
[23] = tested on: CAKI-1
[24] = tested on: MOLT-4
[25] = tested on: MCF7
[26] = tested on: T47D
[27] = tested on: SNB-75
[28] = tested on: KM-20L2
[29] = tested on: HL-60
[30] = tested on: HCC 2998
[31] = tested on: HCT-116
[32] = tested on: BT-549
[33] = tested on: RXF 393
[34] = tested on: SF-539
[35] = tested on: MDA-MB-231
[36] = tested on: SW-620
[37] = tested on: CCRF-CEM
[38] = tested on: UACC-62
[39] = tested on: SK-MEL-2
[40] = tested on: SNB-78
[41] = tested on: MDA-N
[42] = tested on: ACHN
[43] = tested on: Hs-578T
[44] = tested on: COLO 205
[45] = tested on: SK-OV-3
[46] = tested on: RPMI-8226
[47] = tested on: K562
[48] = tested on: SN12C
[49] = tested on: DU-145
[50] = tested on: NCI-H226
[51] = tested on: SNB-19
[52] = tested on: OVCAR-5
[53] = tested on: OVCAR-8
[54] = tested on: TK-10
[55] = tested on: 786-0
[56] = tested on: A498
[57] = tested on: SF-295
[58] = tested on: IGROV-1
[59] = tested on: A549
[60] = tested on: HOP-62
[61] = tested on: MDA-MB-435
[62] = tested on: PC-3
[63] = tested on: NCI-H460
[64] = tested on: SF-268
[65] = tested on: U-251
[66] = tested on: DMS-273
[67] = tested on: SK-MEL-28
[68] = tested on: HT-29
[69] = tested on: DLD-1

SMILES: N#Cc1cc([N+](=O)[O-])ccc1NC(=O)/C(=N\NC(=O)c1ccncc1)C(c1cnc2ccc([N+](=O)[O-])cc2n1)[N+](=O)[O-] (stereo not given)
- GI50 [1]: 0.91 µM (active)
- GI50 [2]: 1.55 µM (inactive)
- GI50 [3]: 2.09 µM (inactive)
- GI50 [4]: 2.03 µM
- GI50 [5]: 1.63 µM (inactive)
- GI50 [6]: 1.8 µM (inactive)
- GI50 [7]: 1.64 µM (inactive)
- GI50 [8]: 2.31 µM (inactive)
- GI50 [9]: 1.5 µM (inactive)
- GI50 [10]: 0.759 µM (active)
- GI50 [11]: 4.24 µM (inactive)
- GI50 [12]: 6.41 µM (inactive)
- GI50 [13]: 2.39 µM (inactive)
- GI50 [14]: 9.31 µM (inactive)
- GI50 [15]: 1.57 µM (inactive)
- GI50 [16]: 1.6 µM (inactive)
- GI50 [17]: 9.18 µM (inactive)
- GI50 [18]: 2.32 µM (inactive)
- GI50 [19]: 1.69 µM (inactive)
- GI50 [20]: 0.566 µM (active)
- GI50 [21]: 1.31 µM (inactive)
- GI50 [22]: 0.869 µM (active)
- GI50 [23]: 5.98 µM (inactive)
- GI50 [24]: 7.23 µM (inactive)
- GI50 [25]: 1.55 µM (inactive)
- GI50 [26]: 3.37 µM (inactive)
- GI50 [27]: 1.99 µM (inactive)
- GI50 [28]: 4.26 µM (inactive)
- GI50 [29]: 3.51 µM (inactive)
- GI50 [30]: 9.27 µM (inactive)
- GI50 [31]: 2.43 µM (inactive)
- GI50 [32]: 1.85 µM (inactive)
- GI50 [33]: 4.44 µM (inactive)
- GI50 [34]: 2.07 µM (inactive)
- GI50 [35]: 1.99 µM (inactive)
- GI50 [36]: 2.4 µM (inactive)
- GI50 [37]: 3.38 µM (inactive)
- GI50 [38]: 1.52 µM (inactive)
- GI50 [39]: 1.75 µM (inactive)
- GI50 [40]: 6.34 µM (inactive)
- GI50 [41]: 0.512 µM (active)
- GI50 [42]: 2.54 µM (inactive)
- GI50 [43]: 2.26 µM (inactive)
- GI50 [44]: 5.69 µM (inactive)
- GI50 [45]: 8.02 µM (inactive)
- GI50 [46]: 5.89 µM (inactive)
- GI50 [47]: 2.02 µM (inactive)
- GI50 [48]: 1.85 µM (inactive)
- GI50 [49]: 5.64 µM (inactive)
- GI50 [50]: 2.45 µM (inactive)
- GI50 [51]: 2.83 µM (inactive)
- GI50 [52]: 9.4 µM (inactive)
- GI50 [53]: 3.1 µM (inactive)
- GI50 [54]: 14.2 µM (inactive)
- GI50 [55]: 2.44 µM (inactive)
- GI50 [56]: 8.49 µM (inactive)
- GI50 [57]: 1.78 µM (inactive)
- GI50 [58]: 3.78 µM (inactive)
- GI50 [59]: 3.64 µM (inactive)
- GI50 [60]: 2.81 µM (inactive)
- GI50 [61]: 1.03 µM (active)
- GI50 [62]: 3.33 µM (inactive)
- GI50 [63]: 2.13 µM (inactive)
- GI50 [64]: 2.86 µM (inactive)
- GI50 [65]: 2.15 µM (inactive)
- GI50 [66]: 1.82 µM (inactive)
- GI50 [67]: 2.17 µM (inactive)
- GI50 [68]: 19.2 µM (inactive)

SMILES: CCC1(C(=O)OC)CCc2c(OC)ccc(OC)c2C1=O (stereo not given)
- GI50 [1]: > 100 µM (inactive)
- GI50 [2]: > 100 µM (inactive)
- GI50 [3]: > 100 µM (inactive)
- GI50 [4]: > 100 µM
- GI50 [5]: > 100 µM (inactive)
- GI50 [6]: > 100 µM (inactive)
- GI50 [7]: > 100 µM (inactive)
- GI50 [8]: > 100 µM (inactive)
- GI50 [9]: > 100 µM (inactive)
- GI50 [10]: > 100 µM (inactive)
- GI50 [13]: > 100 µM (inactive)
- GI50 [14]: > 100 µM (inactive)
- GI50 [15]: > 100 µM (inactive)
- GI50 [16]: > 100 µM (inactive)
- GI50 [18]: > 100 µM (inactive)
- GI50 [19]: > 100 µM (inactive)
- GI50 [20]: > 100 µM (inactive)
- GI50 [21]: > 100 µM (inactive)
- GI50 [22]: > 100 µM (inactive)
- GI50 [23]: > 100 µM (inactive)
- GI50 [24]: > 100 µM (inactive)
- GI50 [28]: > 100 µM (inactive)
- GI50 [29]: > 100 µM (inactive)
- GI50 [30]: > 100 µM (inactive)
- GI50 [31]: > 100 µM (inactive)
- GI50 [34]: > 100 µM (inactive)
- GI50 [36]: > 100 µM (inactive)
- GI50 [37]: > 100 µM (inactive)
- GI50 [38]: > 100 µM (inactive)
- GI50 [39]: > 100 µM (inactive)
- GI50 [40]: > 100 µM (inactive)
- GI50 [42]: > 100 µM (inactive)
- GI50 [44]: > 100 µM (inactive)
- GI50 [45]: > 100 µM (inactive)
- GI50 [46]: > 100 µM (inactive)
- GI50 [47]: > 100 µM (inactive)
- GI50 [48]: > 100 µM (inactive)
- GI50 [51]: > 100 µM (inactive)
- GI50 [52]: > 100 µM (inactive)
- GI50 [69]: > 100 µM (inactive)
- GI50 [53]: > 100 µM (inactive)
- GI50 [54]: > 100 µM (inactive)
- GI50 [55]: > 100 µM (inactive)
- GI50 [56]: > 100 µM (inactive)
- GI50 [57]: > 100 µM (inactive)
- GI50 [58]: > 100 µM (inactive)
- GI50 [59]: > 100 µM (inactive)
- GI50 [60]: > 100 µM (inactive)
- GI50 [63]: > 100 µM (inactive)
- GI50 [64]: > 100 µM (inactive)
- GI50 [65]: > 100 µM (inactive)
- GI50 [66]: > 100 µM (inactive)
- GI50 [67]: > 100 µM (inactive)
- GI50 [68]: > 100 µM (inactive)

SMILES: CCCCCCCCCCC(=O)CCCCCCC(=O)O
- GI50 [1]: 30.1 µM (inactive)
- GI50 [2]: 82.6 µM (inactive)
- GI50 [3]: 45.6 µM (inactive)
- GI50 [4]: 13.5 µM
- GI50 [5]: 20.5 µM (inactive)
- GI50 [6]: 21.4 µM (inactive)
- GI50 [7]: 18.2 µM (inactive)
- GI50 [8]: 23.7 µM (inactive)
- GI50 [9]: 16.9 µM (inactive)
- GI50 [10]: 15.7 µM (inactive)
- GI50 [11]: 18.2 µM (inactive)
- GI50 [13]: 15.5 µM (inactive)
- GI50 [14]: 31.8 µM (inactive)
- GI50 [15]: 18.2 µM (inactive)
- GI50 [16]: 20.3 µM (inactive)
- GI50 [17]: 16.9 µM (inactive)
- GI50 [18]: 19.9 µM (inactive)
- GI50 [19]: 24.3 µM (inactive)
- GI50 [20]: 27 µM (inactive)
- GI50 [21]: 20.8 µM (inactive)
- GI50 [22]: 15.5 µM (inactive)
- GI50 [23]: 30.5 µM (inactive)
- GI50 [24]: 15.1 µM (inactive)
- GI50 [27]: 29.6 µM (inactive)
- GI50 [29]: 4.23 µM (inactive)
- GI50 [30]: 17.1 µM (inactive)
- GI50 [31]: 13.8 µM (inactive)
- GI50 [33]: 36.3 µM (inactive)
- GI50 [34]: 18.1 µM (inactive)
- GI50 [36]: 22.4 µM (inactive)
- GI50 [37]: 19.5 µM (inactive)
- GI50 [38]: 17.9 µM (inactive)
- GI50 [39]: 25.8 µM (inactive)
- GI50 [40]: 69.8 µM (inactive)
- GI50 [42]: 21.5 µM (inactive)
- GI50 [44]: 15.4 µM (inactive)
- GI50 [45]: 53.8 µM (inactive)
- GI50 [46]: 13.4 µM (inactive)
- GI50 [47]: 7.33 µM (inactive)
- GI50 [48]: 27.3 µM (inactive)
- GI50 [50]: 32.8 µM (inactive)
- GI50 [51]: 42.1 µM (inactive)
- GI50 [52]: 16.3 µM (inactive)
- GI50 [69]: 19 µM (inactive)
- GI50 [53]: 17.8 µM (inactive)
- GI50 [54]: 32.1 µM (inactive)
- GI50 [55]: 18.8 µM (inactive)
- GI50 [56]: 20.1 µM (inactive)
- GI50 [57]: 21.5 µM (inactive)
- GI50 [58]: 19.2 µM (inactive)
- GI50 [59]: 15.3 µM (inactive)
- GI50 [60]: 25.4 µM (inactive)
- GI50 [63]: 16.5 µM (inactive)
- GI50 [64]: 50.5 µM (inactive)
- GI50 [65]: 20.7 µM (inactive)
- GI50 [66]: 19.3 µM (inactive)
- GI50 [67]: 40 µM (inactive)
- GI50 [68]: 18.5 µM (inactive)
